Measured values reported in PubChem BioAssay (NCI).
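Grown in 96-well plates, cells were treated for 48 hours with each compound at five concentrations. Insufficient inhibition: endpoint recorded as highest concentration tested. TGI denotes the concentration required for complete inhibition of growth.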

Legend:
Assay in all cases: inhibition of tumour cell growth, NCI panel, 48 h
786-0 renal = tested on: 786-0 renal
A498 renal = tested on: A498 renal
A549 NSCLC = tested on: A549 NSCLC
ACHN renal = tested on: ACHN renal
CAKI-1 renal = tested on: CAKI-1 renal
CCRF-CEM leukemia = tested on: CCRF-CEM leukemia
DLD-1 colon = tested on: DLD-1 colon
DMS 114 small cell lung = tested on: DMS 114 small cell lung
DMS 273 small cell lung = tested on: DMS 273 small cell lung
EKVX NSCLC = tested on: EKVX NSCLC
HCC-2998 colon = tested on: HCC-2998 colon
HCT-116 colon = tested on: HCT-116 colon
HCT-15 colon = tested on: HCT-15 colon
HL-60(TB) leukemia = tested on: HL-60(TB) leukemia
HOP-18 NSCLC = tested on: HOP-18 NSCLC
HOP-62 NSCLC = tested on: HOP-62 NSCLC
HOP-92 NSCLC = tested on: HOP-92 NSCLC
HT29 colon = tested on: HT29 colon
IGROV1 ovarian = tested on: IGROV1 ovarian
K-562 leukemia = tested on: K-562 leukemia
KM12 colon = tested on: KM12 colon
KM20L2 colon = tested on: KM20L2 colon
LXFL 529 NSCLC = tested on: LXFL 529 NSCLC
M14 melanoma = tested on: M14 melanoma
M19-MEL melanoma = tested on: M19-MEL melanoma
MALME-3M melanoma = tested on: MALME-3M melanoma
MOLT-4 leukemia = tested on: MOLT-4 leukemia
NCI-H226 lung = tested on: NCI-H226 lung
NCI-H23 lung = tested on: NCI-H23 lung
NCI-H460 lung = tested on: NCI-H460 lung
NCI-H522 lung = tested on: NCI-H522 lung
OVCAR-3 ovarian = tested on: OVCAR-3 ovarian
OVCAR-4 ovarian = tested on: OVCAR-4 ovarian
OVCAR-5 ovarian = tested on: OVCAR-5 ovarian
OVCAR-8 ovarian = tested on: OVCAR-8 ovarian
RPMI-8226 leukemia = tested on: RPMI-8226 leukemia
RXF 393 renal = tested on: RXF 393 renal
RXF-631 renal = tested on: RXF-631 renal
SF-268 CNS = tested on: SF-268 CNS
SF-295 CNS = tested on: SF-295 CNS
SF-539 CNS = tested on: SF-539 CNS
SK-MEL-2 melanoma = tested on: SK-MEL-2 melanoma
SK-MEL-28 melanoma = tested on: SK-MEL-28 melanoma
SK-MEL-5 melanoma = tested on: SK-MEL-5 melanoma
SK-OV-3 ovarian = tested on: SK-OV-3 ovarian
SN12C renal = tested on: SN12C renal
SNB-19 CNS = tested on: SNB-19 CNS
SNB-75 CNS = tested on: SNB-75 CNS
SNB-78 CNS = tested on: SNB-78 CNS
SR leukemia = tested on: SR leukemia
SW-620 colon = tested on: SW-620 colon
TK-10 renal = tested on: TK-10 renal
U251 CNS = tested on: U251 CNS
UACC-257 melanoma = tested on: UACC-257 melanoma
UACC-62 melanoma = tested on: UACC-62 melanoma
UO-31 renal = tested on: UO-31 renal
XF 498 CNS = tested on: XF 498 CNS
COLO 205 colon = tested on: COLO 205 colon
LOX IMVI melanoma = tested on: LOX IMVI melanoma

CCCCCCCCCCCCCCCCCC(=O)OCC(C[As](=O)(O)O)OC(=O)CCCCCCCCCCCCCCCCC (centres undefined)
TGI (786-0 renal): > 100 µM
TGI (A498 renal): > 100 µM
TGI (A549 NSCLC): > 100 µM
TGI (ACHN renal): > 100 µM
TGI (CAKI-1 renal): > 100 µM
TGI (CCRF-CEM leukemia): > 100 µM
TGI (DLD-1 colon): > 100 µM
TGI (DMS 114 small cell lung): 34.3 µM
TGI (DMS 273 small cell lung): > 100 µM
TGI (EKVX NSCLC): > 100 µM
TGI (HCC-2998 colon): > 100 µM
TGI (HCT-116 colon): > 100 µM
TGI (HCT-15 colon): > 100 µM
TGI (HL-60(TB) leukemia): > 100 µM
TGI (HOP-18 NSCLC): > 100 µM
TGI (HOP-62 NSCLC): 85.2 µM
TGI (HOP-92 NSCLC): 40.4 µM
TGI (HT29 colon): > 100 µM
TGI (IGROV1 ovarian): > 100 µM
TGI (K-562 leukemia): > 100 µM
TGI (KM12 colon): > 100 µM
TGI (KM20L2 colon): > 100 µM
TGI (LXFL 529 NSCLC): > 100 µM
TGI (M14 melanoma): > 100 µM
TGI (M19-MEL melanoma): > 100 µM
TGI (MALME-3M melanoma): > 100 µM
TGI (MOLT-4 leukemia): > 100 µM
TGI (NCI-H226 lung): 70.4 µM
TGI (NCI-H23 lung): > 100 µM
TGI (NCI-H460 lung): > 100 µM
TGI (NCI-H522 lung): > 100 µM
TGI (OVCAR-3 ovarian): > 100 µM
TGI (OVCAR-4 ovarian): > 100 µM
TGI (OVCAR-5 ovarian): > 100 µM
TGI (OVCAR-8 ovarian): > 100 µM
TGI (RPMI-8226 leukemia): 80.8 µM
TGI (RXF 393 renal): 47 µM
TGI (RXF-631 renal): > 100 µM
TGI (SF-268 CNS): > 100 µM
TGI (SF-295 CNS): > 100 µM
TGI (SF-539 CNS): > 100 µM
TGI (SK-MEL-2 melanoma): > 100 µM
TGI (SK-MEL-28 melanoma): > 100 µM
TGI (SK-MEL-5 melanoma): > 100 µM
TGI (SK-OV-3 ovarian): 50 µM
TGI (SN12C renal): > 100 µM
TGI (SNB-19 CNS): 77.4 µM
TGI (SNB-75 CNS): 81.6 µM
TGI (SNB-78 CNS): > 100 µM
TGI (SR leukemia): 38.9 µM
TGI (SW-620 colon): 33.8 µM
TGI (TK-10 renal): > 100 µM
TGI (U251 CNS): > 100 µM
TGI (UACC-257 melanoma): > 100 µM
TGI (UACC-62 melanoma): > 100 µM
TGI (UO-31 renal): > 100 µM
TGI (XF 498 CNS): 53 µM

CCOC(=O)C(C(=O)OCC)=C1N[C@H](C(=O)OCC)CS1
TGI (786-0 renal): > 100 µM
TGI (A549 NSCLC): > 100 µM
TGI (ACHN renal): > 100 µM
TGI (CAKI-1 renal): > 100 µM
TGI (CCRF-CEM leukemia): > 100 µM
TGI (COLO 205 colon): > 100 µM
TGI (DLD-1 colon): > 100 µM
TGI (EKVX NSCLC): > 100 µM
TGI (HCC-2998 colon): > 100 µM
TGI (HCT-116 colon): > 100 µM
TGI (HCT-15 colon): > 100 µM
TGI (HL-60(TB) leukemia): > 100 µM
TGI (HOP-18 NSCLC): > 100 µM
TGI (HOP-62 NSCLC): > 100 µM
TGI (HT29 colon): > 100 µM
TGI (IGROV1 ovarian): > 100 µM
TGI (K-562 leukemia): > 100 µM
TGI (KM12 colon): > 100 µM
TGI (KM20L2 colon): > 100 µM
TGI (LOX IMVI melanoma): > 100 µM
TGI (LXFL 529 NSCLC): > 100 µM
TGI (M14 melanoma): > 100 µM
TGI (M19-MEL melanoma): > 100 µM
TGI (MALME-3M melanoma): > 100 µM
TGI (MOLT-4 leukemia): > 100 µM
TGI (NCI-H226 lung): > 100 µM
TGI (NCI-H23 lung): > 100 µM
TGI (NCI-H460 lung): > 100 µM
TGI (NCI-H522 lung): > 100 µM
TGI (OVCAR-3 ovarian): > 100 µM
TGI (OVCAR-4 ovarian): > 100 µM
TGI (OVCAR-5 ovarian): > 100 µM
TGI (OVCAR-8 ovarian): > 100 µM
TGI (RPMI-8226 leukemia): > 100 µM
TGI (RXF 393 renal): > 100 µM
TGI (RXF-631 renal): > 100 µM
TGI (SF-268 CNS): > 100 µM
TGI (SF-295 CNS): > 100 µM
TGI (SF-539 CNS): > 100 µM
TGI (SK-MEL-2 melanoma): > 100 µM
TGI (SK-MEL-28 melanoma): > 100 µM
TGI (SK-MEL-5 melanoma): > 100 µM
TGI (SN12C renal): > 100 µM
TGI (SNB-19 CNS): > 100 µM
TGI (SNB-78 CNS): > 100 µM
TGI (SR leukemia): > 100 µM
TGI (SW-620 colon): > 100 µM
TGI (U251 CNS): > 100 µM
TGI (UACC-257 melanoma): > 100 µM
TGI (UACC-62 melanoma): > 100 µM
TGI (UO-31 renal): > 100 µM
TGI (XF 498 CNS): > 100 µM
